This note sets out measurements from patent publication US20220089598A1, “INHIBITORS OF HUMAN IMMUNODEFICIENCY VIRUS REPLICATION” (VIIV HEALTHCARE UK (No. 5) LIMITED, priority 2018, published 2022).

Data set [1] has as its system recombinant NL4-3 virus (Renilla luciferase) in MT-2 cells. Description: HIV cell culture assay (antiviral activity, luciferase readout). The format is cell-based. As to conditions: Renilla, NL43. How it is done: HIV cell culture assay—MT-2 cells, 293T cells and the proviral DNA clone of NL4-3 virus were obtained from the NIH AIDS Research and Reference Reagent Program. MT-2 cells were propagated in RPMI 1640 media supplemented with 10% heat inactivated fetal bovine serum (FBS), 100 μg/ml penicillin G and up to 100 units/mL streptomycin. The 293T cells were propagated in DMEM media supplemented with 10% heat inactivated FBS, 100 μg/mL penicillin G and 100 μg/mL streptomycin. A recombinant NL4-3 proviral clone, in which a section of the nef gene was replaced with the Renilla luciferase gene, was used to make the reference virus used in these studies. The recombinant virus was prepared through transfection of the recombinant NL4-3 proviral clone into 293T cells using Transit-293 Transfection Reagent from Mirus Bio LLC (Madison, Wis.). Supernatent was harvested after 2-3 days and the amount of virus present was titered in MT-2 cells using luciferase enzyme activity as a marker by measuring luciferase enzyme activity. Luciferase was quantitated using the EnduRen Live Cell Substrate from Promega (Madison, Wis.). Antiviral activities of compounds toward the recombinant virus were quantified by measuring luciferase activity in MT-2 cells infected for 4-5 days with the recombinant virus in the presence of serial dilutions of the compound.
The 50% effective concentration (EC50) was calculated by using the exponential form of the median effect equation where (Fa)=1/[1+(ED50/drug conc.)m] (Johnson V A, Byington R T. Infectivity Assay. In Techniques in HIV Research. ed. Aldovini A, Walker B D. 71-76. New York: Stockton Press. 1990).

Data set [2] is described as follows: Compound cytotoxicity, XTT-based colorimetric assay. The format is cell-based. The settings on record: human; uninfected MT2 cells, day 4, XTT assay. The protocol: Compound cytotoxicity and the corresponding CC50 values were determined using the same protocol as described in the antiviral assay except that uninfected cells were used. Cytotoxicity was assessed on day 4 in uninfected MT2 cells by using a XTT (2,3-bis[2-Methoxy-4-nitro-5-sulfophenyl]-2H-tetrazolium-5-carboxyanilide inner salt)-based colorimetric assay (Sigma-Aldrich, St Louis, Mo.).
(Formazan colour is commonly taken as a measure of viable cells.)

Take `CS(=O)(=O)Nc1nn(CC(F)(F)F)c2c(-n3c([C@H](Cc4cc(F)cc(F)c4)NC(=O)Cn4ccc(C5CC5)n4)nc4nc(-c5ccccc5F)ccc4c3=O)ccc(Cl)c12` (atropisomer, axis not shown; (P)) [Example 36, (S)—N-(1-((3P)-3-(4-chloro-3-(methylsulfonamido)-1-(2,2,2-trifluoroethyl)-1H-indazol-7-yl)-7-(2-fluorophenyl)-4-oxo-3,4-dihydropyrido[2,3-d]pyrimidin-2-yl)-2-(3,5-difluorophenyl)ethyl)-2-(3-cyclopropyl-1H-pyrazol-1-yl)acetamide]: in data set [1], the 50% effective concentration (EC50) came out at 0.16 nM. Besides, in data set [2], the 50% cytotoxic concentration (CC50) at 4 day was greater than 500 nM.

In the case of `Cn1nc(NS(C)(=O)=O)c2c(Cl)ccc(-n3c([C@H](Cc4cc(F)cc(F)c4)NC(=O)Cn4nc(C(F)(F)F)c5c4C(F)(F)[C@@H]4C[C@H]54)nc4nc(-c5ccccc5F)ccc4c3=O)c21` (atropisomer, axis not shown; (P)) [Example 17, N—((S)-1-((3P)-3-(4-chloro-1-methyl-3-(methylsulfonamido)-1H-indazol-7-yl)-7-(2-fluorophenyl)-4-oxo-3,4-dihydropyrido[2,3-d]pyrimidin-2-yl)-2-(3,5-difluorophenyl)ethyl)-2-((3bS,4aR)-5,5-difluoro-3-(trifluoromethyl)-3b,4,4a,5-tetrahydro-1H-cyclopropa[3,4]cyclopenta[1,2-c]pyrazol-1-yl)acetamide], in data set [1], the half-maximal effective concentration (EC50) came out at 0.065 nM. This compound came in with a CC50 at 4 day in data set [2] greater than 100 nM.

Regarding `Cn1nc(NS(C)(=O)=O)c2c(Cl)ccc(-n3c([C@H](Cc4cc(F)cc(F)c4)NC(=O)Cn4nc(C(F)(F)F)c5c4C(F)(F)[C@@H]4C[C@H]54)nc4nc(-c5ccc(F)cc5F)ccc4c3=O)c21` (atropisomer, axis not shown; (P)) [Example 24, N—((S)-1-((3P)-3-(4-chloro-1-methyl-3-(methylsulfonamido)-1H-indazol-7-yl)-7-(2,4-difluorophenyl)-4-oxo-3,4-dihydropyrido[2,3-d]pyrimidin-2-yl)-2-(3,5-difluorophenyl)ethyl)-2-((3bS,4aR)-5,5-difluoro-3-(trifluoromethyl)-3b,4,4a,5-tetrahydro-1H-cyclopropa[3,4]cyclopenta[1,2-c]pyrazol-1-yl)acetamide], the half-maximal effective concentration (EC50) in data set [1] came out at 0.067 nM. In data set [2], this compound registered a CC50 at 4 day greater than 500 nM.

Take `Cn1nc(NS(C)(=O)=O)c2c(Cl)ccc(-n3c([C@H](Cc4cc(F)cc(F)c4)NC(=O)Cn4nc(C(F)F)c5c4C(F)(F)[C@@H]4C[C@H]54)nc4nc(-c5ccc(F)cc5)ccc4c3=O)c21` (atropisomer, axis not shown; (P)) [Example 18, N—((S)-1-((3P)-3-(4-chloro-1-methyl-3-(methylsulfonamido)-1H-indazol-7-yl)-7-(4-fluorophenyl)-4-oxo-3,4-dihydropyrido[2,3-d]pyrimidin-2-yl)-2-(3,5-difluorophenyl)ethyl)-2-((3bS,4aR)-3-(difluoromethyl)-5,5-difluoro-3b,4,4a,5-tetrahydro-1H-cyclopropa[3,4]cyclopenta[1,2-c]pyrazol-1-yl)acetamide]: the concentration for a half-maximal effect (EC50) in data set [1] stood at 0.036 nM. The compound further gave a CC50 at 4 day in data set [2] greater than 100 nM.

As for `Cn1nc(NS(C)(=O)=O)c2c(Cl)ccc(-n3c([C@H](Cc4cc(F)cc(F)c4)NC(=O)Cn4nc(C(F)F)c5c4C(F)(F)[C@@H]4C[C@H]54)nc4nc(-c5ccc(F)cc5CO)ccc4c3=O)c21` (atropisomer, axis not shown; (P)) [Example 16, N—((S)-1-((3P)-3-(4-chloro-1-methyl-3-(methylsulfonamido)-1H-indazol-7-yl)-7-(4-fluoro-2-(hydroxymethyl)phenyl)-4-oxo-3,4-dihydropyrido[2,3-d]pyrimidin-2-yl)-2-(3,5-difluorophenyl)ethyl)-2-((3bS,4aR)-3-(difluoromethyl)-5,5-difluoro-3b,4,4a,5-tetrahydro-1H-cyclopropa[3,4]cyclopenta[1,2-c]pyrazol-1-yl)acetamide], the EC50 in data set [1] was 0.056 nM. This compound also gave a CC50 at 4 day in data set [2] greater than 500 nM.

`Cn1nc(NS(C)(=O)=O)c2c(Cl)ccc(-n3c([C@H](Cc4cc(F)cc(F)c4)NC(=O)Cn4nc(C(F)F)c5c4C(F)(F)[C@@H]4C[C@H]54)nc4nc(-c5cccc(F)c5F)ccc4c3=O)c21` (atropisomer, axis not shown; (P)) [Example 4, N—((S)-1-((3P)-3-(4-chloro-1-methyl-3-(methylsulfonamido)-1H-indazol-7-yl)-7-(2,3-difluorophenyl)-4-oxo-3,4-dihydropyrido[2,3-d]pyrimidin-2-yl)-2-(3,5-difluorophenyl)ethyl)-2-((3bS,4aR)-3-(difluoromethyl)-5,5-difluoro-3b,4,4a,5-tetrahydro-1H-cyclopropa[3,4]cyclopenta[1,2-c]pyrazol-1-yl)acetamide]: in data set [1], the EC50 was found to be 0.092 nM. This compound gave a half-maximal cytotoxic concentration (CC50) at 4 day in data set [2] greater than 100 nM.

As for `O=C(Cn1nc(C(F)(F)F)c2c1C(F)(F)[C@@H]1C[C@H]21)N[C@@H](Cc1cc(F)cc(F)c1)c1nc2nc(-c3ccccc3F)ccc2c(=O)n1-c1ccc(Cl)c2c(NS(=O)(=O)C3CC3)nn(CC(F)F)c12` (atropisomer, axis not shown; (P)) [Example 7, N—((S)-1-((3P)-3-(4-chloro-3-(cyclopropanesulfonamido)-1-(2,2-difluoroethyl)-1H-indazol-7-yl)-7-(2-fluorophenyl)-4-oxo-3,4-dihydropyrido[2,3-d]pyrimidin-2-yl)-2-(3,5-difluorophenyl)ethyl)-2-((3bS,4aR)-5,5-difluoro-3-(trifluoromethyl)-3b,4,4a,5-tetrahydro-1H-cyclopropa[3,4]cyclopenta[1,2-c]pyrazol-1-yl)acetamide], the EC50 in data set [1] was determined as 0.056 nM. The same compound had a CC50 at 4 day in data set [2] greater than 100 nM.

Turning to `Cn1nc(NS(C)(=O)=O)c2c(Cl)ccc(-n3c([C@H](Cc4cc(F)cc(F)c4)NC(=O)Cn4nc(C(F)F)c5c4C(F)(F)[C@@H]4C[C@H]54)nc4nc(-c5ccc(F)c(Cl)c5F)ccc4c3=O)c21` (atropisomer, axis not shown; (P)) [Example 22, N—((S)-1-((3P)-3-(4-chloro-1-methyl-3-(methylsulfonamido)-1H-indazol-7-yl)-7-(3-chloro-2,4-difluorophenyl)-4-oxo-3,4-dihydropyrido[2,3-d]pyrimidin-2-yl)-2-(3,5-difluorophenyl)ethyl)-2-((3bS,4aR)-3-(difluoromethyl)-5,5-difluoro-3b,4,4a,5-tetrahydro-1H-cyclopropa[3,4]cyclopenta[1,2-c]pyrazol-1-yl)acetamide], the concentration for a half-maximal effect (EC50) in data set [1] is 0.1 nM. The half-maximal cytotoxic concentration (CC50) at 4 day in data set [2] was greater than 100 nM.

Consider `Cn1nc(NS(C)(=O)=O)c2c(Cl)ccc(-n3c([C@H](Cc4cc(F)cc(F)c4)NC(=O)Cn4nc(C(F)F)c5c4C(F)(F)[C@@H]4C[C@H]54)nc4nc(-c5cc(F)c(F)c(F)c5)ccc4c3=O)c21` (atropisomer, axis not shown; (P)) [Example 12, N—((S)-1-((3P)-3-(4-chloro-1-methyl-3-(methylsulfonamido)-1H-indazol-7-yl)-4-oxo-7-(3,4,5-trifluorophenyl)-3,4-dihydropyrido[2,3-d]pyrimidin-2-yl)-2-(3,5-difluorophenyl)ethyl)-2-((3bS,4aR)-3-(difluoromethyl)-5,5-difluoro-3b,4,4a,5-tetrahydro-1H-cyclopropa[3,4]cyclopenta[1,2-c]pyrazol-1-yl)acetamide], for which the EC50 in data set [1] was 0.21 nM. The 50% cytotoxic concentration (CC50) at 4 day in data set [2] was greater than 100 nM.

By EC50 is commonly meant the concentration giving half of the maximal effect. In general, CC50 refers to the concentration giving 50% cytotoxicity. A lower CC50 goes with harm at low concentration.
